Experimental data from US20040039211A1, “Tetrapyrroles” (DUKE UNIVERSITY AND NATIONAL JEWISH MEDICAL AND RESEARCH …, priority 2000, published 2004).

Assays:
[1] = SOD activity, xanthine oxidase/cytochrome c method; type: biochemical; settings: for kcat, O2^− dismutation: competition with 10 μM cytochrome c, pH 7.8, 25° C.
Method: FIG. 12. […] The v0 is the rate of reduction of 10 μM cytochrome c by O2. The vi is the rate of reduction of cytochome c inhibited by the porphyrin catalyst in the presence of 0.1 mM EDTA in 0.05 M tris buffer at pH 7.8. 40 μM xanthine. ˜2 nM xanthine oxidase at 25° C. The total volume of the assay solution is 3 mL.
SOD Activity. Catalysis of the dismutating of O2 in vitro was followed by the xanthine oxidase/cytochrome c method (McCord et al, J. Biol. Chem. 244:6049 (1969)).
Dismutation of superoxide anion, O2^−. Assays were conducted in 0.05 M aqueous phosphate buffer, pH 7.8, 0.1 mM EDTA, ±15 μg/mL of catalase, ±albumin. Rate constants for the reaction with O2^−were based upon the competition of the compounds with cytochrome c.
(§1) Two metallotetrapyrroles were tested for antioxidant activity, in vitro. In particular, the compounds were assayed for their ability to dismutate superoxide in the indirect method that utilizes xanthine and xanthine oxidase to generate superoxide and cytochrome c reduction as indicator of superoxide flux. […] The compounds were also assayed for their ability to prevent lipid peroxidation of rat brain homogenates by iron and ascorbate. The mixture of iron and ascorbate generates reactive oxygen species that oxidize biological lipids and these oxidized lipids can be detected as species that react with thiobarbituric acid (TBARS).
a) SOD activity determined using a xanthine oxidase/cytochrome c assay

rat brain homogenates = assay: Lipid peroxidation of rat brain homogenates by iron/ascorbate (TBARS); type: biochemical; settings: concentration that reduced lipid peroxidation by one-half
Method: The ability of mimetics to inhibit lipid peroxidation can be assessed as described by Day et al, Free Rad. Biol. Med. 26:730 (1990). Iron and ascorbate can be used to initiate lipid peroxidation in tissue homogenates and the formation of thiobarbituric acid reactive species (T BARS) measured.
as §1, with “(TBARS). Both compounds could inhibit the formation of TBARS and this ability correlated with their superoxide dismutase (SOD) activity (Table 5).” for “(TBARS).”
b) Lipid peroxidation was initiated in rat brain homogenates with iron/ascorbate and the IC50 is the concentration of compound that reduced lipid peroxidation by one-half.

[2] = Degradation by H2O2 followed by uv/vis spectroscopy; type: physicochemical
Source text: Uv/vis Spectroscopy. […] Also the effects of EDTA, H2O2, and the methanol/water ratio on the stability of the manganese(III) complex were examined. […] 79:699 (1960)). When needed the biliverdin and biliverdin dimethylester as well as their reduced forms bilirubin and bilirubin dimethylester were studied. At μM concentrations, manganese(III) and iron(III) porphyrins are degraded by H2O2 in aqueous solution. pH 7.8 (Batinic-Haberle et al, Inorg. Chem. 38:4011 (1999), Everett et al, J. Trans. Faraday Soc. 49:410 (1953)). […] The reaction was followed in 90/10, v/v methanouaqueous solution at pH^* 7.9. […] The uv/vis spectroscopy indicated degradation via the reduction of biliverdin to bilirubin followed by loss of metal (Gray et al, J. Chem. Soc. 2276 (1961); Kuenzle et al, Biochem. J. 130:1147 (1972); […], Nature 899 (1962)). The interaction of biliverdin and bilirubin with H2O, was also followed in 0.05 M tris buffer, pH 7.8. As observed for its metal complex, biliverdin undergoes reduction by H2O2 via bilirubin. Under pseudo-first order conditions (6 mM to 60 mM H2O2, 60 μM biliverdin), the second-order rate constant was k=3×10^-3 M^-1 s^-1. Bilirubin is more resistant to H2O2 than biliverdin or its metal complex. The disappearance of bilirubin was followed at 435 nm (Gray et al, J. Chem. Soc. 2268 (1961)). Under conditions given above and at 60 mM H2O2, about 40% of the biliverdin and 14% of bilirubin was degraded within 4.4 hours, and about 14% of the complex was degraded inside 80 min.

[3] = Reactivity towards nitric oxide (uv/vis); type: physicochemical; settings: 14 μM, 90-fold excess NO, 90/10 methanol/PBS, 1 hour
[4] = Hydrolysis / dissociation of the complex in methanol/aqueous or water solution; type: physicochemical
Method: Uv/vis Spectroscopy. […] Also the effects of EDTA, H2O2, and the methanol/water ratio on the stability of the manganese(III) complex were examined. […] […] 79:699 (1960)). When needed the biliverdin and biliverdin dimethylester as well as their reduced forms bilirubin and bilirubin dimethylester were studied. […] In a week, at 25° C., only 14% of the complex dissociated. When the water content was increased to 43%, half the complex dissociated in a week.

Solubility = type: physicochemical

Question: What does the source list for “Manganese(III) Biliverdin IX Dimethylester [{Mn^IIIBVDME}2]”?
Answer: specific activity (SOD mimetic) [1]: 10,700 units/mg; effect of albumin on SOD-like activity ([1]; 1:1 albumin to compound ratio): no negative effect of albumin was observed; decrease of SOD-like activity in the presence of albumin ([1]; albumin to compound ratio 3): 50%; SOD specific activity ([1]; per manganese, 1 unit = quantity (mg) per 3.0 mL causing 50% inhibition of reduction of 10 μM cytochrome c): 10700 U/mg; kcat, O2^− dismutation ([1]; per manganese): 5.5e+07 M⁻¹ s⁻¹; kcat, O2^− dismutation ([1]; per manganese, listed as compound of FIG. 2C): 5.5e+07 M⁻¹ s⁻¹; kcat, O2^− dismutation ([1]; per manganese, listed as ½ {Mn^III/IVBVDME^0/−}2): 5.5e+07 M⁻¹ s⁻¹; SOD Activity ([1]; xanthine oxidase/cytochrome c assay): 10,700 USOD/mg; IC50 (rat brain homogenates): 300 nM; fraction degraded by H2O2 ([2]; 60 mM H2O2, inside 80 min): about 14%; second-order rate constant k of H2O2 induced degradation ([2]; 90/10 v/v methanol/aqueous, pH* 7.9, 6 mM to 120 mM H2O2, 15 and 30 μM complex): 0.00064 M⁻¹ s⁻¹; reactivity towards NO (change of spectrum) [3]: No change in the spectrum; reactivity towards NO (change of spectrum) ([3]; listed as compound of FIG. 2C): No reactivity towards NO has been detected; fraction of complex dissociated (hydrolysis) ([4]; 90/10 methanol/aqueous, pH* 7.9, one week, 25° C.): 14%; fraction of complex dissociated (hydrolysis) ([4]; water content 43%, one week): half; solubility in organic solvents (Solubility; ethanol, methanol): soluble in ethanol and methanol; solubility in water (Solubility; water): ~10^−8 M
